Test results from US20020183279A1, “Pharmaceutical composition containing viscoelastic substance and medication” (Koichiro TANAKA, priority 2001, published 2002).

Test system: Bacillus substilis (ATCC6633)
Assay: Inhibition circle (penicillin cup) measurement of antimicrobial activity changed by viscoelastic substance
Type: cell-based, Bacillus subtilis
Procedure: The activity of an antimicrobial agent changes depending upon a type of viscoelastic substance. Such a change was measured by using Bacillus substilis (ATCC6633 referred to as “B subtilis”) and the following viscoelastic substances: First, B. subtilis (0.1 mL of 1.4×10^8 CFU/ML) was spread on a 4% heart infusion medium. Subsequently, a penicillin cup was placed on the medium, and a test solution was poured in the cup. As test solutions, the following groups were used. 0.1 mL of an antimicrobial agent was added to a penicillin cup. Five concentrations from […] were prepared for each antimicrobial agent; 0.1 mL of a viscoelastic substance was added to a penicillin cup; After 0.1 mL of a viscoelastic substance was added to a penicillin cup and allowed to stand still and then 0.1 mL of 5 or 2.5 μg/mL antimicrobial agent was gently added to the viscoelastic substance layer; and 0.1 mL of a viscoelastic substance and 0.1 mL of 5 or 2.5 μg/mL antimicrobial agent were mixed and added to a penicillin cup. Each group was cultured in an incubator at 35° C. for 24 hours. The size of the inhibition circle of B. subtilis was measured. Based on the measurement results of the single antimicrobial agent group, a curve showing the size of inhibition circle versus the antimicrobial agent concentration (referred to as a standard curve) was obtained with respect to individual antimicrobial agents.

CCn1cc(C(=O)O)c(=O)c2cc(F)c(N3CCNCC3)cc21 [NFLX, norfloxacin]
activity of the antimicrobial agent compared to the standard curve (layered group: NFLX layered on HL, OP or VC): lower than the standard
antimicrobial activity, ranking among viscoelastic substances (layered group: NFLX layered on VC): lowest
bacterial proliferation suppression activity compared to the standard curve (mixture group: NFLX mixed with HL, OP or VC, FIG. 5): lower than values of the standard curve but not so significant
